In patent US11926640B2, “Prodrugs of glutamine analogs” (THE JOHNS HOPKINS UNIVERSITY, priority 2015, dated 2024):
“Also recorded” adds a separate entry of the source. Read-outs that look alike come from different tables or passages of the source.

What was measured:
colon cancer cells = assay: rechallenge of compound 25 treated mice with colon cancer cells; assay type: in vivo; details: mice previously treated with single agent
[1] = human microsomes
4T1 tumor cells = assay: 4T1 breast cancer model; assay type: in vivo, BALB/c mice; details: single agent, about 1 mg/kg daily
Procedure: 4T1 tumor cells (0.1 million) were injected into the mammary fat pads of 8-week-old female BALB/c mice. Mice received vehicle (PBS) or 1 mg/kg compound 25 daily from day 5 to day 22. Photos were taken on day 30 after tumor inoculation (FIG. 57A). Tumor volume was measured 2-3 times weekly until WT mice were sacrificed (when size reached to 20 mm length or necrosis occurred). Day 0: 100K 4T1 cells s.c. in 4th mammary pad. Day 5-22: Daily compound 25.
4T1-Luc tumor cells (0.1 million) were injected into the mammary fat pads of 8-week-old female BALB/c mice. Mice received vehicle (PBS) or 1 mg/kg compound 25 daily from day 7. Anti-PD1 (5 mg/Kg) was administered on day 5, 8, and 12. Mice carrying 4T1-luc tumors are injected with Luciferin to measure luminescence from the tumor. IVIS imaging were taken on day 13.
4T1-Luc tumor cells (0.1 million) were injected into the mammary fat pads of 8-week-old female BALB/c mice. Mice received vehicle (PBS) or 1 mg/kg compound 25 daily from day 7 to day 16. Anti-PD1 (5 mg/Kg) was administered on day 5, 8, 12 and 17. Tumor volume was measured 2-3 times weekly until tumors were evaluated for tumor infiltrating cells on day 21. Tumor weights were measured on day 21. On day 21, the PD1 group tumor size looks like it was reduced, however, the result was not due to a tumor size reduction, but rather because one of the large tumor mice died.

MC38 colon cancer = assay: MC38 tumor model; assay type: in vivo, mice; details: single agent
[2] = mouse, in vivo
[3] = pig microsomes
[4] = mouse, in vivo; remark: listed apart in the source
EL4 mouse lymphoma = EL4 mouse lymphoma model; details: in vivo
[5] = Cmax, tumor to gut ratio and GI toxicity of 25 vs DON at equimolar doses in mice; details: 0.8 mg/kg (equivalent) daily for 5 days
CT26 colon cancer = assay: CT26 tumor model; assay type: in vivo, mice; details: single agent
U87 human glioma cells = assay: U87 flank xenograft mouse model of GBM; assay type: in vivo
Procedure: Mice Efficacy Studies. All mouse efficacy studies were conducted according to protocol #MO13M69 approved by the Animal Care and Use Committee at Johns Hopkins University. Female athymic (RH-Foxn1nu mice) mice between 25 and 30 g were obtained (Harlan Sprague Dawley Inc. Indianapolis. Indiana), and maintained on a 12 hour light-dark cycle with ad libitum access to food and water. U87 human glioma cells were injected s.c. (5×10^6 cells in […] of PBS) in four separate locations on the flanks of each mouse. When tumors grew to a mean volume of around 200 mm^3, mice were randomized into either vehicle (HEPES-buffered saline, i.p.) or DON (1; 0.8 mg/kg, i.p.). In one cohort, mice were administered a single dose of the appropriate solution two hours after which glutamine levels were quantified in the tumor as described previously (Le et al., 2012). In brief, tumors were harvested, snap frozen, and homogenized in liquid N, then subjected to metabolite extraction using methanol and DI water. Quantification was performed using Agilent 6520 Quadrupole-Time-of-Flight (Q-TOF) mass spectrometer with Agilent 1290 HPLC and using Agilent Mass Hunter and Agilent Qualitative and Quantitative Analysis Software packages. Glutamine content was averaged by group for each individual tumor (n=3-4/group), depicted as relative intensity, and analyzed by one-tailed t test. In a second cohort, efficacy experiments were conducted. Mice were injected once daily for six days; tumor volumes were measured using digital calipers and calculated according to the formula: [volume=(largest tumor dimension)×(smallest tumor dimension)^2×0.52] at 2, 4, and 6 days after the onset of treatment. Each individual tumor (n=8-10/group) was normalized to its pretreatment volume, averaged and analyzed by repeated measures two-way analysis of variance (ANOVA). If significant, a Bonferroni post hoc test was subsequently applied. Significance was defined as p<0.05.

[6] = 5-day i.v. toxicity comparison of DON and 38 in pigs; assay type: in vivo
melanoma = melanoma growth model; details: in vivo
[7] = tolerability of daily treatment with DON or 25 in mice

In the case of `CCOC(=O)[C@H](CCC(=O)C=[N+]=[N-])NC(=O)[C@@H](N)CC(C)C` [Compound 25, Ethyl 2-(2-amino-4-methylpentanamido)-6-diazo-5-oxohexanoate], the “colon cancer cell proliferation upon rechallenge (in words)” value (colon cancer cells) is reported as “prevents colon cancer cell proliferation upon rechallenge”, the “liver microsomal stability (in words)” value [1] is reported as “moderate-high stability” and the “antitumor efficacy in 4T1 breast cancer model (in words)” value (4T1 tumor cells) is reported as “superior to CB-839; also recorded: robust response and improved overall survival; also recorded: inhibited the growth of mammary carcinoma tumor cells; also recorded: inhibits tumor growth”. The “antitumor efficacy in MC38 tumor model (in words)” value (MC38 colon cancer) was “complete and durable response; also recorded: inhibits colon cell proliferation and extends the survival of mice; also recorded: efficacious; also recorded: more efficacious than oxaliplatin”, the “Cmax vs DON (in words)” value [2] was “reduces Cmax” and the “tumor to gut ratio vs DON (in words)” value [2] was “enhances tumor to gut ratio”. For the same compound, the “liver microsomal stability (in words)” value [3] was “moderate-high stability”, the “blood counts (in words)” value [4] was “some leukopenia” and the “body weight (in words)” value [4] was “No weight loss”. The “bone marrow suppression (in words)” value [4] was “no bone marrow suppression”, the “renal and liver function (in words)” value [4] was “unaffected” and the “antitumor efficacy against lymphoma (in words)” value (EL4 mouse lymphoma) was “cure lymphoma; also recorded: efficacious”. The “GI toxicity, jejunum-ileum histology (in words)” value [5] was “causes less GI toxicity” and the “antitumor efficacy in CT26 tumor model (in words)” value (CT26 colon cancer) was “superior to CB-839; also recorded: robust response and improved overall survival”.
With `[N-]=[N+]=CC(=O)CC[C@H](N)C(=O)O` [DON, 6-diazo-5-oxo-L-norleucine] the “flank GBM tumor size (in words)” value (U87 human glioma cells; 0.8 mg/kg, i.p, q.d. days 1-6) was “dramatic reduction in tumor size”, the “glutamine metabolism in tumor (endogenous glutamine accumulation)” value (U87 human glioma cells; 0.8 mg/kg, i.p., 2 hours post-administration, flank GBM tumors) was “inhibited glutamine metabolism” and the “signs of toxicity (in words)” value (U87 human glioma cells; mice receiving DON 0.8 mg/kg, i.p, q.d.) was “significant signs of toxicity”. For the same compound, the “macroscopic stomach toxicity (in words)” value ([6]; 5 days of dosing) was “more severe stomach toxicity”, the “adverse clinical signs (in words)” value ([6]; DON 1.6 mg/kg vs 38 1.5 mg/kg, i.v. 2 h/day for 5 days, equivalent PBMC exposure) was “more adverse clinical signs; also recorded: more adverse clinical effects” and the “effect on melanoma growth (in words)” value (melanoma) was “modest effect on inhibiting melanoma growth”. The “antitumor efficacy against lymphoma (in words)” value (EL4 mouse lymphoma) was “cure lymphoma; also recorded: markedly inhibits lymphoma growth; also recorded: efficacious”, the “GI toxicity, jejunum-ileum histology (in words)” value [5] was “significant inflammation” and the “blood counts (in words)” value ([7]; daily high dose treatment) was “pan-cytopenia”. For the same compound, the “body weight (in words)” value ([7]; daily high dose treatment) was “weight loss” and the “renal and liver function (in words)” value ([7]; high dose) was “unaffected”.
